Source: patent publication US20190224164A1, “COMPOSITIONS AND METHODS FOR TREATMENT OF COPD” (Bodor Laboratories, Inc., priority 2016, published 2019)

Test system: acetylcholine-induced bronchoconstriction
Assay: Acetylcholine induced bronchoconstriction in anesthetized guinea pigs
Assay type: in vivo, guinea pig
Description: Male Hartley guinea pigs (320±120 g) (Charles River) are housed under standard conditions. Guinea pigs are anesthetized with urethane (2 g/kg, intraperitoneally), the trachea are cannulated and the animal is respired using a small animal respiratory pump (Harvard Apparatus LTD, Kent UK). Respiratory back pressure is measured and recorded using a rodent lung function recording system (MUMED, London UK). For drug administration the right jugular vein is cannulated. Following the surgical procedure, guinea pigs are allowed to stabilize for 20 minutes. Ten minutes before acetylcholine administration, the animals are disconnected from the ventilator and either the vehicle (10 mg lactose) or different amounts of the drug (suspended in the same amount of vehicle) are administered intratracheally. The trachea is reconnected to the ventilator and changes in pulmonary mechanics are followed. Acetylcholine (10 μg/kg) is administered intravenously in every 10 minutes six times. Male Hartley guinea pigs (320±120 g) (Charles River) are housed under standard conditions. Guinea pigs are anesthetized with urethane (2 g/kg, intraperitoneally), the trachea are cannulated and the animal is respired using a small animal respiratory pump (Harvard Apparatus LTD, Kent UK). Respiratory back pressure is measured and recorded using a rodent lung function recording system (MUMED, London UK). […]

## C[N+]1(C)CCC(OC(=O)C(O)(c2ccccc2)C2CCCC2)C1 (centres unmarked) [glycopyrrolate]
Drug intratracheally ten minutes before acetylcholine (10 μg/kg i.v.)
  protective effect on the acetylcholine-induced bronchoconstriction: protective effect
Ester and zwitterion or their combination products intratracheally, acetylcholine 10 μg/kg i.v.
  protective effect on the acetylcholine-induced bronchoconstriction: protective effect
